Values of other authors, collected in article PMC9924909 (Brain, 2022).
Read-outs that look alike come from different tables or passages of the source.

How the values were obtained:
[1] = cited from earlier work
patients with GD3 = conditions: cited from earlier work

Compound | distribution to the brain [1] | effect on neurological symptoms (patients with GD3) | effect on neurological symptoms (patients with GD3; listed as miglustat)
CCCCCCCC(=O)N[C@H](CN1CCCC1)[C@H](O)c1ccc2c(c1)OCCO2 [Eliglustat] | excluded from the brain |  | 
CCCCN1C[C@H](O)[C@@H](O)[C@H](O)[C@H]1CO [Miglustat] | partially distributed to the brain | ineffective for neurological symptoms | no clinical benefit
